# Assay results: patent US20260153494A1 (AGRICUL TURAL UNIVERSITY OF ATHENS, priority 2023, published 2026)
# Values joined by “and” are separate entries in the source; they are usually repeats but may differ in a detail not shown here. Equal values may be shown once.
# Tests used:
# FGGsh155:CB[8] = FGGsh155:CB[8] (Triticum aestivum, UniProt Z9G7Y6U750); test: Inhibition of free FGGsh155:CB[8] by butachlor (IC50, kinetic inhibition analysis); format: biochemical
# Description: The half maximal inhibitory concentration (IC50), namely the inhibitor concentration that leads to 50% inhibition of the enzyme activity of FGGsh155:CB[8], was determined for constant substrate concentrations and varying butachlor concentrations. The utilised substrate concentrations were equal to the kinetic constant value of S0.5 for CDNB and 2.5 times the CDNB concentration for GSH. […] The methodology was tested for drinking water samples derived from the Athens water supply network, as well as commercial mineral water (see Example 11). The results were analysed with the Graphpad Prism software.
# (§1) Kinetic analysis in presence of butachlor aimed to characterize of the type of inhibition, thus the binding site of the inhibitor, as well as to identify possible differences in kinetic behavior between the GST dimer form (sh155) and the hexamer FGGsh155:CB[8] that was used in the immobilization. […] In the mixed inhibition pattern all of the kinetic constants (Km, kcat) change, and the inhibitor is able to bind to both the free enzyme (Ki) and the enzyme-substrate complex (Ki′) with different affinities. […] This type of inhibition is a sub-case of the mixed inhibition pattern where Ki=Ki′, i.e. the velocity of the reaction is decreased without affecting the affinity with the substrate. In this inhibition type, the inhibitor and the substrate bind independently at different enzyme sites.
# [1] = molecular target: T1, immobilized FGGsh155:CB[8] (Triticum aestivum, UniProt Z9G7Y6U750); test: Inhibition of immobilized FGGsh155:CB[8] by butachlor (IC50); format: biochemical; details: after immobilization on the chitosan carrier
# Description: (§2) The half maximal inhibitory concentration (IC50), namely the inhibitor concentration that leads to 50% inhibition of the enzyme activity of FGGsh155:CB[8], was determined for constant substrate concentrations and varying butachlor concentrations. The utilised substrate concentrations were equal to the kinetic constant value of S0.5 for CDNB and 2.5 times the CDNB concentration for GSH. The correlation between the butachlor concentration from 0 to 600 nM (0 to 0.6 μM) and the remaining activity (%) of the immobilized enzyme was linear, thus standard curves for known herbicide concentrations were developed. The methodology was tested for drinking water samples derived from the Athens water supply network, as well as commercial mineral water (see Example 11). The results were analysed with the Graphpad Prism software.
# sh155 = sh155 (Triticum aestivum, UniProt Z9G7Y6U750); test: Kinetic inhibition analysis of dimer sh155 by butachlor; format: biochemical
# Excerpt: as §1
# [2] = molecular target: T1, immobilized FGGsh155:CB[8]; test: Determination of butachlor in spiked water samples with the immobilized enzyme biosensor
# Description: as §2
# The basis for the detection of the herbicide butachlor in water samples was the determination of inhibition induced in the immobilized enzyme form. […] The linear response of inhibition of the immobilized enzyme due to butachlor was described by the equation y=−101.3x+98.07, R^2=0.991 (FIG. 23A). This observation led to the development of a methodology for determination of butachlor in drinking water samples based on the detection of inhibition as determined by a standard reference curve. Accordingly, standard curves were generated for spiked, with known concentrations of butachlor, samples of drinking water from the Athens' supply network (y=−81.84x+98.81, R^2=0.997) and bottled mineral water (y=−72.69x+99.46, R^2=0.995) (FIG. 23B). The detection range of butachlor with this methodology was determined up to 180 μg/L (600 nM) in water samples, with the acceptable amount of a pesticide in surface water at 1.0 μg/L and in drinking water at 0.1 μg/L (Council Directive 98/83/EC). The detection range up to 0.6 μM (180 μg/L) of the developed biosensor, with detection limit at approximately 31 μg/L for butachlor, achieves comparatively high sensitivity and selectivity.
# The methodology was evaluated with recovery experiments of spiked drinking water samples, with known but random concentrations of butachlor within the range of the standard curve. […] The correlation between the added and found butachlor tested concentrations for network supply water (R^2 0.9993, p<0.0001) and mineral water (R^2 0.9987, p<0.0001) is depicted in FIG. 23C & 23D.
# [3] = buffer; cited from earlier work
# human lymphocytes = details: cited from earlier work
# [4] = system: Immobilized FGGsh155:CB[8] hexamer (GSTF mutant sh155, FGG-tagged, SEQ ID NO: 2, with cucurbit[8]uril 1:1, on glutaraldehyde-crosslinked chitosan); test: Butachlor inhibition (IC50) of immobilized FGGsh155:CB[8]; format: biochemical; details: immobilized on chitosan carrier vs free enzyme
# Description: FIG. 21 (A-B): Dose-response inhibition curves of FGGsh155:CB[8] due to the herbicide butachlor for the determination of IC50 value. FIG. 21A. before and FIG. 21B. after immobilization. The data represent the mean±SD (N=3).
# as §2
# [5] = system: sh155 dimer (phi class glutathione S-transferase GSTF mutant derived by DNA shuffling, SEQ ID NO: 2); test: Kinetic inhibition analysis with butachlor, dimer sh155; format: biochemical; details: constant GSH, variable CDNB
# Excerpt: (§3) FIG. 22 (A-J): Kinetic inhibition analysis of the dimer enzyme sh155 (FIG. 22A, 22C, 22E, 22G, 22I) and the hexamer FGGsh155:CB[8] (FIGS. 22B, 22D, 22F, 22H, 22J). A. & B. Lineweaver-Burk plots for the inhibition of the enzymes by different concentrations of butachlor, at constant concentration of GSH and variable concentration of CDNB. C. & D. Secondary (derivative) graph. The slope values were derived from the Lineweaver-Burk graphs (A) & (B). The intersection point with the x axis corresponds to Ki. E. & F. Secondary (derivative) graph where the data are derived from the Lineweaver-Burk graphs (A) & (B). The intersection point with the x axis corresponds to K. G. & H. Lineweaver-Burk plots for the inhibition of the enzymes by different concentrations of butachlor, at constant concentration of CDNB and variable concentration of GSH. […]. Secondary (derivative) graph. The slope values were derived from the Lineweaver-Burk graphs […], and the intersection point with the x axis corresponds to Ki.
# (§4) Kinetic analysis in presence of butachlor aimed to characterize of the type of inhibition, thus the binding site of the inhibitor, as well as to identify possible differences in kinetic behavior between the GST dimer form (sh155) and the hexamer FGGsh155:CB[8] that was used in the immobilization. […]
# [6] = system: FGGsh155:CB[8] hexamer (FGG-tagged phi class glutathione S-transferase GSTF mutant sh155, SEQ ID NO: 2, with cucurbit[8]uril 1:1); test: Kinetic inhibition analysis with butachlor, hexamer FGGsh155:CB[8]; format: biochemical; details: constant GSH, variable CDNB
# Excerpt: as §3, §4
# [7] = towards CDNB (variable CDNB, constant GSH), binding to free enzyme
# [8] = towards CDNB, binding to enzyme-substrate complex
# [9] = towards GSH (variable GSH, constant CDNB)
compound,measurement,setting,value
"CCCCOCN(C(=O)CCl)c1c(CC)cccc1CC [butachlor, 2-chloro-2,6-diethyl-N-butoxymethyl-acetanilide]",type of inhibition towards GSH,FGGsh155:CB[8],non-competitive inhibition
same,type of inhibition towards the CDNB substrate,FGGsh155:CB[8],mixed type inhibition
same,IC50,"FGGsh155:CB[8]; free enzyme, before immobilization",5.14 ± 0.16 µM
same,Ki,FGGsh155:CB[8]; [7],4.42 µM
same,Ki,FGGsh155:CB[8]; [8],21.1 µM
same,Ki,FGGsh155:CB[8]; [9],13.2 µM
same,IC50,[1],0.56 ± 0.02 µM
same,type of inhibition towards GSH,sh155,non-competitive inhibition
same,type of inhibition towards the CDNB substrate,sh155,mixed type inhibition
same,Ki,sh155; [7],5.92 µM
same,Ki,sh155; [8],22.6 µM
same,Ki,sh155; [9],13.3 µM
same,Found butachlor,"[2]; Athens water supply network, added 0.05 μM",0.046 ± 0.003 µM
same,Found butachlor,"[2]; Athens water supply network, added 0.2 μM",0.191 ± 0.001 µM
same,Found butachlor,"[2]; Athens water supply network, added 0.3 μM",0.308 ± 0.008 µM
same,Found butachlor,"[2]; Athens water supply network, added 0.4 μM",0.416 ± 0.005 µM
same,Found butachlor,"[2]; Athens water supply network, added 0.6 μM",0.617 ± 0.003 µM
same,Found butachlor,"[2]; Bottled mineral water, added 0.1 μM",0.095 ± 0.005 µM
same,Found butachlor,"[2]; Bottled mineral water, added 0.2 μM",0.215 ± 0.005 µM
same,Found butachlor,"[2]; Bottled mineral water, added 0.3 μM",0.307 ± 0.005 µM
same,Found butachlor,"[2]; Bottled mineral water, added 0.4 μM",0.413 ± 0.012 µM
same,Found butachlor,"[2]; Bottled mineral water, added 0.55 μM",0.56 ± 0.010 µM
same,detection limit,[2]; developed biosensor,approximately 31 μg/L
same,detection range,[2]; water samples,up to 180 μg/L and ≤ 600 nM
same,half-life,[3],up to 2.5 days
same,frequency of chromosomal abnormalities,human lymphocytes,dose-dependent increase in the frequency of chromosomal abnormalities
"CCCCOCN(C(=O)CCl)c1c(CC)cccc1CC [Butachlor, 2-chloro-2,6-diethyl-N-butoxymethyl-acetanilide]",increase in sensitivity for butachlor after immobilization (IC50 immobilized vs free enzyme),[4],ten-fold increase in sensitivity
same,type of inhibition towards CDNB,[5],mixed type inhibition with Ki<Ki′
same,type of inhibition towards CDNB,[6],mixed type inhibition with Ki<Ki′
